Laboratory results as given in patent US20020165130A1, “Method of sensitizing microbial cells to antimicrobial compounds” (priority 1998, published 2002).
Entries after “also recorded” stand apart in the source; their conditions may differ.

Legend:
[1] = system: Staphylococcus aureus ATCC 6538; assay: Antibiotic disc assay (zones of inhibition), S. aureus; format: cell-based; settings: for ability to sensitize S. aureus to ciprofloxacin: 0.5 mM terpenoid; for ability to sensitize S. aureus to ciprofloxacin / zone size, ciprofloxacin 5 μg disc: ciprofloxacin 5 μg disc; for sensitization to six different antibiotics: disc diffusion, 0.5-2 mM sesquiterpenoid; for zone size, ciprofloxacin 5 μg disc: terpenoid at 0.5 mM in agar overlay
Description: (§1) Erwinia sp. #351 was from Presque Isle Cultures, Presque Isle, Pa. Lactobacillus fermentum ATCC 14931, zygosaccharomyces bailii ATCC 60483 and E. coli ATCC 25922 (National Committee on Clinical Laboratory Standards antibiotic test strain) were from the American Type Culture Collection, Manassas, Va. Staphylococcus aureus ATCC 6538 and Enterococcus faecalis Bact. 4025 were obtained from the UW-Madison Department of Bacteriology culture collection. All bacteria except for L. fermentum were grown statically in screwcap tubes containing 10 ml Trypticase Soy Broth (BBL, Cockeysville, Md.) for 20-22 hours at 30° C. L. fermentum was grown statically in screwcap tubes containing 10 ml MRS broth (Difco) for 20-22 hours at 30° C. Cultures of Z. bailii were grown in 125 ml culture flasks containing 50 ml YM broth (Difco) on a rotary shaker set at 200 rpm for 20-22 hours at 25° C.
(§2) The activity of terpenoid compounds toward facilitating susceptibility to antibiotics was assessed using an antibiotic disc assay. For this assay, cells from an overnight growth were suspended to a known concentration in 0.5 ml 67 mM phosphate buffer, pH 7.0 and mixed with 4.5 ml 0.7% Iso-Sensitest agar (Oxoid, Basingstoke, Hampshire, England) overlay tempered to 50° C. Terpenoid compounds dissolved in absolute ethanol were added to the cell/agar overlay mixture yielding final concentrations of 0.5, 1.0 or 2.0 mM, depending on the experiment. The final concentration of ethanol in cell overlays was 0.5% and the final concentration of target cells was ca. 10^6 cfu/ml. After thorough vortexing, terpenoid-containing cell overlays were poured over hardened Iso-Sensitest agar (2% agar) plates and allowed to set. […] After incubation, zones of inhibition were measured with a ruler from the bottom of the plates.

[2] = system: zygosaccharomyces bailii ATCC 60483; assay: Flow cytometry, uptake of ethidium bromide by Z. bailii; format: cell-based; settings: 0.5 mM sesquiterpenoid, 15 μM ethidium bromide, 40 minutes
Description: (§3) Erwinia sp. #351 was from Presque Isle Cultures, Presque Isle, Pa. Lactobacillus fermentum ATCC 14931, zygosaccharomyces bailii ATCC 60483 and E. coli ATCC 25922 (National Committee on Clinical Laboratory Standards antibiotic test strain) were from the American Type Culture Collection, Manassas, Va. Staphylococcus aureus ATCC 6538 and Enterococcus faecalis Bact. 4025 were obtained from the UW-Madison Department of Bacteriology culture collection. All bacteria except for L. fermentum were grown statically in screwcap tubes containing 10 ml Trypticase Soy Broth (BBL, Cockeysville, Md.) for 20-22 hours at 30° C. L. fermentum was grown statically in screwcap tubes containing 10 ml MRS broth (Difco) for 20-22 hours at 30° C. Cultures of Z. bailii were grown in 125 ml culture flasks containing 50 ml YM broth (Difco) on a rotary shaker set at 200 rpm for 20-22 hours at 25° C. For experiments involving flow cytometry, overnight cultures of Erwinia sp., L. fermentum and Z. bailli were set to a concentration of ca. 10^7 cfu/ml in 67 mM phosphate buffer, pH 7.0 (filtered, 0.2 μm). For the examination of sesquiterpenoids, cell suspensions containing either 0.5% ethanol and 15 μM ethidium bromide or 0.5 mM apritone, bisabolol, nerolidol or farnesol dissolved in ethanol (0.5% ethanol, final concentration) and 15 μM ethidium bromide were incubated for 40 minutes at room temperature. After incubation, cell suspensions were diluted 1:10 in 67 mM phosphate buffer, pH 7.0 (filtered, 0.2 μm) and examined using a FACScan flow cytometer (Becton Dickinson and Company, Cockeysville, Md.). Data were collected in logarithmic mode on forward scatter, side scatter and fluorescence characteristics of the cells.

[3] = system: Enterococcus faecalis Bact. 4025; format: cell-based; settings: E. faecalis; for degree of sensitization to antibiotics: disc diffusion; for degree of sensitization to antibiotics / zones smaller than control plates by: 1 mM sesquiterpenoid; for zones smaller than control plates by: clindamycin 2 μg disc
Description: as §1, §2

[4] = system: Lactobacillus fermentum ATCC 14931; assay: Flow cytometry, uptake of ethidium bromide by L. fermentum; format: cell-based; settings: 15 μM ethidium bromide; for uptake of ethidium bromide (ethidium-conferred fluorescence): 0.5 mM sesquiterpenoid, 40 minutes
Description: as §3

E. coli ATCC 25922 = assay: Plating assay, nerolidol enhancing polymyxin B activity against E. coli; format: cell-based, Escherichia coli; settings: 1 mM nerolidol plus 10 ppm polymyxin B, up to 30 minutes at 37° C.
Description: as §1, with “25° C. […]” for “25° C.”
Cell suspensions (1.7×10^7 cfu/ml in 67 mM phosphate buffer, pH 7.0) were treated as shown and incubated for up to 30 minutes at 37° C. Cell viability was determined at appropriate intervals by pour plating with Trypticase Soy agar tempered to 50° C.

Row | SMILES | ability to sensitize S. aureus to ciprofloxacin [1] | sensitization to six different antibiotics [1] | zone size, ciprofloxacin 5 μg disc [1] [mm] | uptake of ethidium bromide (fluorescence, chromosomal staining) [2] | degree of sensitization to antibiotics [3] | uptake of ethidium bromide (ethidium-conferred fluorescence) [4] | zones smaller than control plates by [3] [mm] | inhibitory by itself in disc assay overlay ([1]; all concentrations used (0.5, 1, 2 mM)) | inhibitory by itself in disc assay overlay ([3]; 1 mM) | uptake of ethidium bromide (ethidium-conferred fluorescence) ([4]; listed as Farnesol) | enhancement of inhibition zone size ([3]; nerolidol 1 mM combined with gentamicin 10 μg disc) | susceptibility of E. coli to polymyxin B (cell viability, cfu/ml) (E. coli ATCC 25922) | time to substantial uptake of ethidium bromide ([4]; 0.5 mM nerolidol) [min]
1 | CC(C)=CCC/C(C)=C/CC1CCCC1=O (stereo not drawn) [apritone] | least effective | readily sensitized | 24 | greatest degree of chromosomal staining; also recorded: became more fluorescent | only a modest degree of sensitization | facilitated the uptake of ethidium bromide |  |  |  |  |  |  | 
2 | CC(C)=CCC[C@](C)(O)C1CC=C(C)CC1 (stereo partly drawn) [bisabolol] |  | readily sensitized | 25 | became more fluorescent | only a modest degree of sensitization | facilitated the uptake of ethidium bromide | 1 |  |  |  |  |  | 
3 | CC(C)=CCCC(C)=CCCC(C)=CCO [farnesol] |  |  |  | became more fluorescent |  | facilitated the uptake of ethidium bromide |  | inhibitory | inhibitory | highest ethidium-conferred fluorescence peak |  |  | 
4 | C=CC(C)(O)CCC=C(C)CCC=C(C)C (stereo not drawn) [nerolidol] | most effective | readily sensitized | 27.5 | became more fluorescent | only a modest degree of sensitization | facilitated the uptake of ethidium bromide | 1 |  |  |  | almost two-fold enhancement | dramatic increase in the susceptibility; also recorded: synergistic effect | ≤ 5
